# Reference: article PMC12348509, “Classical Paal-Knorr Cyclization for Synthesis of Pyrrole-Based Aryl Hydrazones and In Vitro/In Vivo Evaluation on Pharmacological Models of Parkinson’s Disease” (Molecules, 2025)
# What was measured:
# MAOB = system: MAOB; set-up: method as in PMID 36500572; settings: 1 μmol; cited from earlier work
# rat brain mitochondria [1] = assay: MDA production in brain mitochondria, substances applied alone; type: cell-based; settings: 100 µM, vs untreated mitochondria
# Description: To the mitochondria, 0.3 mL of 0.2% thiobarbituric acid and 0.25 mL of sulfuric acid (0.05 M) were added, and the mixture was boiled for 30 min. After boiling, the tubes were placed on ice, and 0.4 mL of n-butanol was added to each tube, which was then centrifuged at 3500× g for 10 min. The amount of MDA was determined spectrophotometrically at 532 nm.
# rat brain microsomes [2] = assay: MDA production in brain microsomes, substances applied alone; type: cell-based; settings: 100 µM, vs untreated microsomes
# Description: The brain was homogenized in nine volumes of 0.1 M Tris buffer containing 0.1 mM dithiothreitol, 0.1 mM phenylmethylsulfonyl fluoride, 0.2 mM EDTA, 1.15% KCl, and 20% (v/v) glycerol (pH 7.4). The resulting homogenate was centrifuged twice at 17,000× g for 30 min. The supernatants from the two centrifugations were pooled and centrifuged twice at 100,000× g for 1 h. The pellet was then frozen in 0.1 M Tris buffer.
# [3] = target: T1, human recombinant MAOA enzyme (hMAOA) (Homo sapiens, UniProt P21397); assay: Human recombinant MAOA enzyme activity (Amplex Red, fluorimetric); type: biochemical; settings: for IC50: read-out: IC50 (EC50), (µM ± SD) hMAOA
# T1 construct: purchased
# T1 sequence (P21397 1-527): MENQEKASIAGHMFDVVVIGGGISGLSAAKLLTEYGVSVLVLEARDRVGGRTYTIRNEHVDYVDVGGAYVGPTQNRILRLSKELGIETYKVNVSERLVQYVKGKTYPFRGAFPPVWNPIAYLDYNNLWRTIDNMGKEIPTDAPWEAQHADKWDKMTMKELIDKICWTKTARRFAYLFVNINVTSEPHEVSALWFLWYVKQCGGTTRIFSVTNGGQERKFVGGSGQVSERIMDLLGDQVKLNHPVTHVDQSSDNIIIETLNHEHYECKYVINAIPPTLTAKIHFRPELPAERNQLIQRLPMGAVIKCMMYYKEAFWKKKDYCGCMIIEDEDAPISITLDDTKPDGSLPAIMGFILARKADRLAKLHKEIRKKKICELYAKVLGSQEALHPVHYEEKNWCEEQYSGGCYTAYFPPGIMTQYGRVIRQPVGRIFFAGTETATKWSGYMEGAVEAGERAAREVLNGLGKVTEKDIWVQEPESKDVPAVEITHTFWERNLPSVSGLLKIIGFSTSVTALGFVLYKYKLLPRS
# Description: (§1) Working solutions of the test substances, reagents, and human recombinant MAOA/B enzyme (hMAOA/B) were prepared in a reaction buffer according to the manufacturer’s instructions. The substances were applied at a final concentration of 1 µM. The substances, together with hMAOA/B, were placed in a 96-well plate (eight samples for each substance), and the plate was placed in an incubator for 30 min (in the dark, at 37 °C). The activity of recombinant human MAOA/B was determined fluorimetrically at two wavelengths (570 nm and 690 nm) with fluorimetric readings performed in a Synergy 2 Microplate Reader. Tyramine hydrochloride was used as the substrate. The activity was determined by detecting H2O2 production. This production is reported by binding to horseradish peroxidase using N-acetyl-3,7-dihydroxyphenoxazine (AmplexRed, Thermo Fisher Scientific, Waltham, MA, USA).
# rat brain mitochondria [4] = assay: GSH level in brain mitochondria, substances applied alone; settings: 100 µM, vs untreated mitochondria
# rat brain microsomes [5] = settings: 100 µM combined with Fe2+/AA
# [6] = target: T2, human recombinant MAOB enzyme (hMAOB) (Homo sapiens, UniProt P27338); assay: Human recombinant MAOB enzyme activity (Amplex Red, fluorimetric); type: biochemical; settings: for inhibition at 1 µM: read-out: hMAOB inhibitory effect (decrease of enzyme activity); for IC50: read-out: IC50 (EC50), (µM ± SD) hMAOB
# T2 construct: purchased
# T2 sequence (P27338 1-520): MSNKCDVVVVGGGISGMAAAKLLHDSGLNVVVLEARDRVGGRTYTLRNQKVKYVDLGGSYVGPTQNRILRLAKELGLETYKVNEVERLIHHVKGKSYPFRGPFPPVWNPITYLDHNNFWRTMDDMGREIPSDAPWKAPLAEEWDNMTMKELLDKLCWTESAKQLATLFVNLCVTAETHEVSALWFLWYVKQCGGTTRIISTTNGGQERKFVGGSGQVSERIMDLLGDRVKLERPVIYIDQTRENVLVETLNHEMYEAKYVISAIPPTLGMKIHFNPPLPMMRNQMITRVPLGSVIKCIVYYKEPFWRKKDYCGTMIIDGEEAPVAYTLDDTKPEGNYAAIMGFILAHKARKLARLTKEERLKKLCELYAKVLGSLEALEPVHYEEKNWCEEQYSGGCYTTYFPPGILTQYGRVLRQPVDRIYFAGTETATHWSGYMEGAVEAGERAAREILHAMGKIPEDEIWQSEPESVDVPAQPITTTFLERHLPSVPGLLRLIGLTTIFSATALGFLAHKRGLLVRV
# Description: as §1
# [7] = system: Rotenone-induced model of Parkinsonism in mice; assay: Rotenone-induced model of Parkinsonism in mice, brain histopathology (H&E); type: in vivo
# Description: The histological morphology of the mouse brains, mainly the areas of the […] and cerebellum, was examined microscopically.
# The samples from mouse brains were fixed in 10% buffered neutral formalin solution. The fixed materials were dehydrated in ascending grades of alcohol: 50°, 60°, 70°, 80°, 90°, 96°, and absolute alcohol. After dehydration, the samples were cleared with xylene and embedded in paraffin blocks. Sections with a thickness of 5 μm were prepared using a rotary microtome. The sections were attached to slides using histological glue, processed with xylene, rehydrated using a descending alcohol row–absolute alcohol, 96°, 90°, 80°, 70°, 60°, and 50°, and finally stained with Hematoxylin-Eosin [57]. Microscopic examination and photography were performed using a Levenhuk D740T light microscope with an integrated camera.
# rat brain mitochondria [8] = settings: 100 µM combined with t-BuOOH
# [9] = 100 µM with 6-OHDA 150 µM, compared to the toxic agent
# [10] = 150 µM, vs untreated synaptosomes
SMILES,increase of MDA production in brain mitochondria vs control (rat brain mitochondria [1]) [%],increase of MDA production in brain microsomes vs control (rat brain microsomes [2]) [%],decrease of GSH level in brain mitochondria vs control (rat brain mitochondria [4]) [%],further results
CCOC(=O)c1cc(-c2ccc(Br)cc2)n(CCC(=O)NN)c1C [compound 12],,,,MAOB inhibition (MAOB): 50%
"CCOC(=O)c1cc(-c2ccc(Br)cc2)n(CCCC(=O)N/N=C/c2ccccc2)c1C [15a, (E)-Ethyl 1-(4-(2-benzylidenehydrazinyl)-4-oxobutyl)-5-(4-bromophenyl)-2-methyl-1H-pyrrole-3-carboxylate]",59,52,15,"IC50 [3]: > 200 µM; antioxidant effect vs Fe2+/AA (MDA production) (rat brain microsomes [5]): most prominent effect on MDA production; SI: hMAOB selectivity index = IC50(hMAOA)/IC50(hMAOB) [6]: >289; inhibition at 1 µM ([6]; 1 µM, vs control (pure hMAOB)): 50%; IC50 [6]: 0.692 µM"
"CCOC(=O)c1cc(-c2ccc(Br)cc2)n(CCCC(=O)N/N=C/c2ccccc2O)c1C [15b, (E)-Ethyl 5-(4-bromophenyl)-1-(4-(2-(2-hydroxybenzylidene)hydrazinyl)-4-oxobutyl)-2-methyl-1H-pyrrole-3-carboxylate]",99,121,25,
"C=C(C)[C@H]1Cc2c(ccc3c2O[C@@H]2COc4cc(OC)c(OC)cc4[C@@H]2C3=O)O1 [rotenone, reference compound]",,,,"brain histology, rotenone alone ([7]; cerebral cortex of mice treated with rotenone): distinct degenerative-necrotic changes"
"CCOC(=O)c1cc(-c2ccc(Br)cc2)n(CCCC(=O)N/N=C/c2ccc(N(C)C)cc2)c1C [15f, (E)-Ethyl 5-(4-bromophenyl)-1-(4-(2-(4-(dimethylamio)benzylidene)hydrazinyl)-4-oxobutyl)-2-methyl-1H-pyrrole-3-carboxylate]",69,67,15,"hMAOA inhibitory effect (decrease of enzyme activity) ([3]; 1 µM, vs control (pure hMAOA)): 40%; IC50 [3]: 0.821 µM; SI: hMAOB selectivity index = IC50(hMAOA)/IC50(hMAOB) [6]: 1.16; hMAOB inhibitory effect (decrease of enzyme activity) ([6]; 1 µM, vs control (pure hMAOB)): 45%; IC50 [6]: 0.71 µM"
"CCOC(=O)c1cc(-c2ccc(Br)cc2)n(CCCC(=O)N/N=C/c2ccccc2F)c1C [15c, (E)-Ethyl 5-(4-bromophenyl)-1-(4-(2-(2-fluorobenzylidene)hydrazinyl)-4-oxobutyl)-2-methyl-1H-pyrrole-3-carboxylate]",110,132,25,
"CCOC(=O)c1cc(-c2ccc(Br)cc2)n(CCCC(=O)N/N=C/c2cccc(F)c2)c1C [15d, (E)-Ethyl 5-(4-bromophenyl)-1-(4-(2-(3-fluorobenzylidene)hydrazinyl)-4-oxobutyl)-2-methyl-1H-pyrrole-3-carboxylate]",57,63,10,"neuroprotective effect vs t-BuOOH (GSH level and MDA production) (rat brain mitochondria [8]): most pronounced neuroprotection; IC50 [3]: > 200 µM; brain histology, in combination with rotenone ([7]; mice treated with rotenone plus 15d, light microscopy): preserved histoarchitectonics; brain histology, treated alone ([7]; mouse, in vivo): no microscopically visible changes; preservation of GSH level vs 6-OHDA (rat brain synaptosomes; [9]): 20%; preservation of synaptosomal viability vs 6-OHDA (rat brain synaptosomes; [9]): 15%; SI: hMAOB selectivity index = IC50(hMAOA)/IC50(hMAOB) [6]: >471; inhibition at 1 µM ([6]; 1 µM, vs control (pure hMAOB)): 60%; IC50 [6]: 0.425 µM"
"CCOC(=O)c1cc(-c2ccc(Br)cc2)n(CCCC(=O)N/N=C/c2ccc(OC)cc2)c1C [15e, (E)-Ethyl 5-(4-bromophenyl)-1-(4-(2-(4-methoxybenzylidene)hydrazinyl)-4-oxobutyl)-2-methyl-1H-pyrrole-3-carboxylate]",119,149,20,
"NCCc1cc(O)c(O)cc1O [6-OHDA, 6-hydroxydopamine, reference compound]",,,,decrease of GSH level in synaptosomes by the toxic agent alone (rat brain synaptosomes; [10]): 50%; decrease of synaptosomal viability by the toxic agent alone (rat brain synaptosomes; [10]): 50%
"CCOC(=O)c1cc(-c2ccc(Br)cc2)n(CCCC(=O)O)c1C [compound 13, 4-(5-(4-Bromophenyl)-3-(ethoxycarbonyl)-2-methyl-1H-pyrrole-1-yl)butanoic acid]",79,93,15,
"CCOC(=O)c1cc(-c2ccc(Br)cc2)n(CCCC(=O)NN)c1C [compound 15, Ethyl 5-(4-bromophenyl)-1-(4-hydrazinyl-4-oxobutyl)-2-methyl-1H-pyrrole-3-carboxylate]",73,,25,
"CCOC(=O)c1cc(-c2ccc(Br)cc2)n(CCCC(=O)N/N=C/c2cccc(C=O)c2)c1C [15g, (E)-Ethyl 5-(4-bromophenyl)-1-(4-(2-(3-formylbenzylidene)hydrazinyl)-4-oxobutyl)-2-methyl-1H-pyrrole-3-carboxylate]",143,158,20,
CCOC(=O)c1cc(-c2ccc(Br)cc2)n(CC(=O)NN)c1C [compound 11],,,,MAOB inhibition (MAOB): 26%
